{"source": "patent US8569305B2", "about": "“Treatment of tuberous sclerosis associated neoplasms” (Emory University, priority 2002, dated 2013)", "key": {"[1]": {"test_system": "Human SV7tert angiomyolipoma cells", "assay": "Inhibition of proliferation of SV7tert cells by tyrosine kinase inhibitors (cell count)", "format": "cell-based", "conditions": "for sensitivity / growth inhibition of SV7tert cells (in words): Human SV7tert cells in vitro; for N number of living cells after 72 h treatment: Human SV7tert cells; for No. of Cells after 72 hours: SV7tert cells", "text": "(§1) SV7tert (ATCC CRL 2461) is a cell line derived from a human angiomyolipoma through the sequential introduction of SV40 large T antigen and telomerase into primary human angiomyolipoma cells (Arbiser, J. L. et al. The generation and characterization of a cell line derived from a sporadic renal angiomyolipoma: use of telomerase to obtain stable populations of cells from benign neoplasms. Am.J.Pathol. 159, 483-491 (2001)). Angiomyolipomas are benign tumors of the kidney derived from putative perivascular epithelioid cells, that may undergo differentiation into cells with features of melanocytes, smooth muscle, and fat. Tsc2ang1 (ATCC CRL 2620) is a murine cell line derived from a cutaneous sarcoma arising in the extremity of a mouse heterozygous for tsc2. The sarcoma tissue was digested with collagenase and processed as described for SV7tert cells (Arbiser, J. L. et al.). Mice heterozygous for tsc2 develop cutaneous sarcomas at a frequency of approximately 10-15% (Onda, H., Lueck, A., Marks, P. W., Warren, H. B., & Kwiatkowski, D. J. Tsc2(+/−) mice develop tumors in multiple sites that express gelsolin and are influenced by genetic background. J.Clin Invest 104, 687-695 (1999)).\n(§2) The following tyrosine kinase inhibitors were reconstituted as stock solutions in dimethyl sulfoxide (DMSO) immediately prior to use; AG9, AG17, AG18, AG30, AG82, AG99, AG112, AG370, AG490, AG879, AG957, AG1295, AG1296, AG1433, 2′thioadenosine, ST638, COMPOUND I, lavendustin C, oxindole 1, JAK3 inhibitors 1,2, and 3, as well as JAK3 inhibitor negative control. They can be obtained from Calbiochem (San Diego, Calif.). 10,000 cells per well in a 24 well dish were plated on day 1, and were treated with inhibitors in doses ranging from […] (LaMontagne Jr K. R. Jr et al. Inhibition of MAP kinase kinase causes morphological reversion and dissociation between soft agar growth and in vivo tumorigenesis in angiosarcoma cells; Am.J.Pathol. 157,1937-1945 (2000)). Cells were counted 72 hours after treatment with inhibitors using a Coulter Counter (Coulter, Hialeah,Fla.)."}, "Murine tsc2ang1 cells": {"test_system": "Murine tsc2ang1 cells", "assay": "Inhibition of proliferation of tsc2ang1 cells by tyrosine kinase inhibitors (cell count)", "format": "cell-based", "conditions": "for N number of living cells after 72 h treatment: Murine tsc2ang1 cells", "text": "as §1, §2"}, "[2]": {"test_system": "Akt phosphorylation in SV7tert cells", "assay": "Akt phosphorylation in SV7tert cells after treatment", "format": "cell-based, human", "conditions": "after 24 hours of treatment"}}, "note": "Entries after “also recorded” stand apart in the source; their conditions may differ."}
{"smiles": "COC(=O)c1ccc(NCc2cc(O)ccc2O)cc1", "note": "[AG957]", "values": [{"measurement": "inhibition", "setting": "[1]; 0.5 μg/ml, data not shown, cell line not stated in the sentence (SV7tert by context)", "result": "approximately 90%"}, {"measurement": "sensitivity / growth inhibition of SV7tert cells (in words)", "setting": "[1]", "result": "highest sensitivity"}]}
{"smiles": "N#C/C(=C\\c1ccc(O)c(O)c1)C(=O)O", "note": "[AG30]", "values": [{"measurement": "N number of living cells after 72 h treatment", "setting": "[1]; concentration 10 μg/ml", "result": "250 ×100"}, {"measurement": "N number of living cells after 72 h treatment", "setting": "[1]; concentration 20 μg/ml", "result": "270 ×100"}]}
{"smiles": "CC(C)(C)c1cc(C=C(C#N)C#N)cc(C(C)(C)C)c1O", "note": "[AG17, 3,5-di-tert-butyl-4-hydroxybenzylidene-malononitrile]", "values": [{"measurement": "sensitivity / growth inhibition of SV7tert cells (in words)", "setting": "[1]", "result": "highest sensitivity; also recorded: strongly inhibited"}, {"measurement": "N number of living cells after 72 h treatment", "setting": "[1]; concentration 10 μg/ml", "result": "23 ×100"}, {"measurement": "N number of living cells after 72 h treatment", "setting": "[1]; concentration 20 μg/ml", "result": "22 ×100"}, {"measurement": "sensitivity / growth inhibition of tsc2ang1 cells (in words)", "setting": "Murine tsc2ang1 cells; Murine tsc2ang1 cells in vitro", "result": "hypersensitivity; also recorded: strongly inhibited"}, {"measurement": "N number of living cells after 72 h treatment", "setting": "Murine tsc2ang1 cells; concentration 10 μg/ml", "result": "23 ×100"}, {"measurement": "N number of living cells after 72 h treatment", "setting": "Murine tsc2ang1 cells; concentration 20 μg/ml", "result": "23 ×100"}]}
{"smiles": "CCOc1cc(/C=C(\\C#N)C(N)=O)cc(CSc2ccccc2)c1O", "note": "[ST638]", "values": [{"measurement": "N number of living cells after 72 h treatment", "setting": "[1]; concentration 10 μg/ml", "result": "250 ×100"}, {"measurement": "N number of living cells after 72 h treatment", "setting": "[1]; concentration 20 μg/ml", "result": "205 ×100"}]}
{"smiles": "COc1cc2ncnc(Nc3cccc(Cl)c3)c2cc1OC", "note": "[AG1478]", "values": [{"measurement": "N number of living cells after 72 h treatment", "setting": "[1]; concentration 10 μg/ml", "result": "251 ×100"}, {"measurement": "N number of living cells after 72 h treatment", "setting": "[1]; concentration 20 μg/ml", "result": "210 ×100"}]}
{"smiles": "Cc1ccc(NC(=O)c2ccc(CN3CCN(C)CC3)cc2)cc1Nc1nccc(-c2cccnc2)n1", "note": "[COMPOUND I, N-{5-[4-(4-methyl-piperazino-methyl)-benzoylamido]-2-methylphenyl}-4-(3-pyridyl)-2-pyrimidine-amine]", "values": [{"measurement": "sensitivity / growth inhibition of SV7tert cells (in words)", "setting": "[1]", "result": "increased sensitivity to COMPOUND I compared to murine tsc2ang1"}, {"measurement": "No. of Cells after 72 hours", "setting": "[1]; 2 μg/ml (control 22450)", "result": 16500}, {"measurement": "No. of Cells after 72 hours", "setting": "[1]; 5 μg/ml (control 22450)", "result": 10000}, {"measurement": "No. of Cells after 72 hours", "setting": "[1]; 10 μg/ml (control 22450)", "result": 6500}, {"measurement": "Akt phosphorylation (in words)", "setting": "[2]", "result": "downregulation of Akt phosphorylation"}]}
